Source: the RepoRT retention time repository (doi:10.1186/gb-2013-14-6-r54)

Assay: RP, Hichrom Alltima HP C18, 150 × 2.1 mm, 3 µm, 0.2 mL/min, estimated dead time 1.7 min; A: 90% water + 5% acetonitrile + 5% formic acid; B: acetonitrile; gradient (min/%B) 0/0 5/10 25/20 30/25 45/70 65/0
Conditions: stereoisomer not certain

Row | LC retention time [min] | SMILES
1 | 3.04 | O=C(O)CC(O)(CC(=O)O)C(=O)O [citric acid]
2 | 14.4 | OCC1OC(Oc2cc3c(O)cc(O)cc3[o+]c2-c2ccc(O)c(O)c2)C(O)C(O)C1O (configuration not stated) [cyanidin-3-O-glucoside]
3 | 27.6 | O=C(C=Cc1ccc(O)cc1)OCC1OC(Oc2cc3c(O)cc(=O)cc-3oc2-c2ccc(O)c(O)c2)C(O)C(O)C1O (stereo not drawn) [cyanidin-(coumaroyl)-3-O glucoside, trans isomer]
4 | 12.5 | OCC1OC(Oc2cc3c(O)cc(O)cc3[o+]c2-c2cc(O)c(O)c(O)c2)C(O)C(O)C1O (configuration not stated) [delfinidin-3-O-glucoside]
5 | 2.52 | OCC1OC(OC2(CO)OC(CO)C(O)C2O)C(O)C(O)C1O (configuration not stated) [di-hexose (sucrose)]
6 | 19.8 | CC1OC(OC2C(=O)c3c(O)cc(O)cc3OC2c2ccc(O)c(O)c2)C(O)C(O)C1O (configuration not stated) [dihydroquercetin-O-deoxyhexoside (astilbin)]
7 | 2.37 | O=C(O)C(O)C(O)C(O)C(O)CO (configuration not stated) [gluconic acid]
8 | 3.04 | NC(CCC(=O)NC(CS)C(=O)NCC(=O)O)C(=O)O (configuration not stated) [glutathione]
9 | 2.4 | OCC1OC(O)C(O)C(O)C1O (configuration not stated) [hexose]
10 | 2.72 | O=C(O)CC(O)C(=O)O (configuration not stated) [malic acid]
11 | 18 | COc1cc(-c2oc3cc(=O)cc(O)c-3cc2OC2OC(CO)C(O)C(O)C2O)cc(OC)c1O (configuration not stated) [malvidin-3-O-glucoside]
12 | 3.53 | O=C(OC1OC(CO)C(O)C(O)C1O)c1cc(O)c(O)c(O)c1 (configuration not stated) [monogalloyl glucose]
13 | 17.2 | COc1cc(-c2[o+]c3cc(O)cc(O)c3cc2OC2OC(CO)C(O)C(O)C2O)ccc1O (configuration not stated) [peonidin-3-O-glucoside]
14 | 15.6 | COc1cc(-c2[o+]c3cc(O)cc(O)c3cc2OC2OC(CO)C(O)C(O)C2O)cc(O)c1O (configuration not stated) [petunidin-3-O-glucoside]
15 | 20 | O=C(O)C1OC(Oc2c(-c3ccc(O)c(O)c3)oc3cc(O)cc(O)c3c2=O)C(O)C(O)C1O (configuration not stated) [quercetin glucuronide]
16 | 2.52 | O=C(O)C(O)C(O)C(=O)O (configuration not stated) [tartaric acid]
17 | 15.8 | NC(Cc1cn(C2OC(CO)C(O)C(O)C2O)c2ccccc12)C(=O)O (configuration not stated) [tryptophan-N-glucoside]
